Test results taken from patent US6593319B1, “Fusidic acid derivatives” (Leo Pharmaceutical Products, Ltd. A/S, priority 2001, dated 2003).
Converted amounts (≈) assume the structure as drawn.

Tests used:
[1] = test system: S. aureus ATCC2977; assay: MIC, agar diffusion method (European Pharmacopoeia 3rd Ed.); assay type: cell-based
Description: (§1) The antibacterial activity of some of these compounds relative to fusidic acid appears from Table 2 showing MIC values for compounds of the invention. The method used is recommended by the European Pharmacopoeia 3rd Ed. (1997) for testing the potency of antibiotics. It is an agar diffusion method where the same volume of the tested solution is added to cavities in agar. The inhibition zones are a function of the concentration of the fusidic acid analogue used. All assays are run with fusidic acid (1) as the reference substance. The results in Table 2 differ from those of Table 1 due to the different experimental methods used.

[2] = test system: S. aureus Leo id. CJ232; assay: as above; assay type: cell-based; settings: S. aureus Leo id. CJ232, MRSA
Description: as §1

[3] = test system: Strep. faecium Leo id. E119(P); assay: as above; assay type: cell-based; settings: Penicillin resistant
Description: as §1

[4] = test system: S. aureus Leoid CJ234(R); assay: as above; assay type: cell-based; settings: MRSA and Rifampicin resistant
Description: as §1

[5] = test system: Strep. faecalis ATCC10541; assay: as above; assay type: cell-based
Description: as §1

[6] = test system: Strep. epidermis A. ATCC12228; assay: as above; assay type: cell-based
Description: as §1

[7] = test system: S. aureus ATCC6538P; assay: as above; assay type: cell-based
Description: as §1

[8] = test system: Strep. sp. Gr.B Leo id. EF6; assay: as above; assay type: cell-based
Description: as §1

[9] = Stability in ethanol solution (retained activity); assay type: physicochemical; settings: solution in ethanol stored at 0° C. for 1 month
[10] = test system: P. acnes/1060; assay: MIC, microtitter plates, liquid medium containing broth; assay type: cell-based; settings: Cutibacterium acnes, read-out: MIC values (concentrations in μg/ml required for 90% inhibition)
Description: (§2) In vitro investigations have evidenced high potency of compounds of the invention against several bacteria including staphylococci, streptococci, corynebacteriae and mycobacteriae. […] The biological tests are conducted on microtitter plates using liquid medium containing broth.

[11] = test system: Streptococcus - gr.B/61; assay: as above; assay type: cell-based; settings: read-out: MIC values (concentrations in μg/ml required for 90% inhibition)
Description: as §2

[12] = test system: S. aureus/ATCC 29213; assay: as above; assay type: cell-based; settings: Staphylococcus aureus, ATCC 29213 / MSSA, FusS, read-out: MIC values (concentrations in μg/ml required for 90% inhibition)
Description: as §2

[13] = test system: C. diphteria/62001; assay: as above; assay type: cell-based; settings: read-out: MIC values (concentrations in μg/ml required for 90% inhibition)
Description: as §2

[14] = test system: E. faecalis/V583 P. Cour.; assay: as above; assay type: cell-based; settings: Enterococcus faecalis, VanR, read-out: MIC values (concentrations in μg/ml required for 90% inhibition)
Description: as §2

[15] = test system: N. meningitidis/K1; assay: as above; assay type: cell-based; settings: Neisseria meningitidis, read-out: MIC values (concentrations in μg/ml required for 90% inhibition)
Description: as §2

[16] = test system: Streptococcus - gr.C/68; assay: as above; assay type: cell-based; settings: read-out: MIC values (concentrations in μg/ml required for 90% inhibition)
Description: as §2

[17] = test system: Staphylococcus/291-2; assay: as above; assay type: cell-based; settings: Staphylococcus/291-2, coagulase negative, FusS, read-out: MIC values (concentrations in μg/ml required for 90% inhibition)
Description: as §2

[18] = test system: S. aureus/1 Aus-pe; assay: as above; assay type: cell-based; settings: Staphylococcus aureus, FusS, MRSA, read-out: MIC values (concentrations in μg/ml required for 90% inhibition)
Description: as §2

[19] = test system: Streptococcus - gr.G/59; assay: as above; assay type: cell-based; settings: read-out: MIC values (concentrations in μg/ml required for 90% inhibition)
Description: as §2

[20] = test system: Staphylococcus/379-2; assay: as above; assay type: cell-based; settings: Staphylococcus/379-2, coagulase negative, FusR, read-out: MIC values (concentrations in μg/ml required for 90% inhibition)
Description: as §2

[21] = test system: N. gonorrhoea/C1; assay: as above; assay type: cell-based; settings: read-out: MIC values (concentrations in μg/ml required for 90% inhibition)
Description: as §2

[22] = test system: Streptococcus - gr.A/67011; assay: as above; assay type: cell-based; settings: read-out: MIC values (concentrations in μg/ml required for 90% inhibition)
Description: as §2

[23] = test system: S. aureus/22 DK; assay: as above; assay type: cell-based; settings: Staphylococcus aureus, FusS, MSSA, read-out: MIC values (concentrations in μg/ml required for 90% inhibition)
Description: as §2

[24] = test system: M. tuberculosis/R 498; assay: as above; assay type: cell-based; settings: Mycobacterium tuberculosis, read-out: MIC values (concentrations in μg/ml required for 90% inhibition)
Description: as §2

[25] = test system: S. aureus/54 USA-br; assay: as above; assay type: cell-based; settings: Staphylococcus aureus, FusR, MSSA, read-out: MIC values (concentrations in μg/ml required for 90% inhibition)
Description: as §2

[26] = relative to fusidic acid; reduction of C-24/C-25 and C-17/C-20 double bonds; cited from earlier work
[27] = Staphylococcus aureus, read-out: MIC values (concentrations in μg/ml required for 90% inhibition)
[28] = read-out: MIC values (concentrations in μg/ml required for 90% inhibition)

Compound: CCO[C@H]1C[C@@]2(C)[C@@H](C[C@@H](O)[C@H]3[C@@]4(C)CC[C@@H](O)[C@@H](C)[C@@H]4CC[C@@]32C)[C@H]1[C@H](CCC=C(C)C)C(=O)O [Compound 123, 16-Deacetoxy-16β-ethoxy-17(S),20(S)-dihydrofusidic Acid]
- MIC values (concentrations in μg/ml required for 90% inhibition) [1]: 0.02 µg/mL
- MIC values (concentrations in μg/ml required for 90% inhibition) [2]: 0.005 µg/mL
- MIC values (concentrations in μg/ml required for 90% inhibition) [3]: 16 µg/mL
- MIC values (concentrations in μg/ml required for 90% inhibition) [4]: 0.007 µg/mL
- MIC values (concentrations in μg/ml required for 90% inhibition) [5]: 16 µg/mL
- MIC values (concentrations in μg/ml required for 90% inhibition) [6]: 0.5 µg/mL
- MIC values (concentrations in μg/ml required for 90% inhibition) [7]: 0.02 µg/mL
- MIC values (concentrations in μg/ml required for 90% inhibition) [8]: 16 µg/mL

Compound: COCO[C@H]1C[C@@]2(C)[C@@H](C[C@@H](O)[C@H]3[C@@]4(C)CC[C@@H](O)[C@@H](C)[C@@H]4CC[C@@]32C)[C@H]1[C@H](CCC=C(C)C)C(=O)O [Compound 128, 16-Deacetoxy-16β-methoxymethoxy-17(S),20(S)-dihydrofusidic acid]
- MIC values (concentrations in μg/ml required for 90% inhibition) [1]: 0.19 µg/mL
- MIC values (concentrations in μg/ml required for 90% inhibition) [2]: >64 µg/mL
- MIC values (concentrations in μg/ml required for 90% inhibition) [3]: 16 µg/mL
- MIC values (concentrations in μg/ml required for 90% inhibition) [4]: >64 µg/mL
- MIC values (concentrations in μg/ml required for 90% inhibition) [5]: 16 µg/mL
- MIC values (concentrations in μg/ml required for 90% inhibition) [6]: 0.5 µg/mL
- MIC values (concentrations in μg/ml required for 90% inhibition) [7]: 0.26 µg/mL
- MIC values (concentrations in μg/ml required for 90% inhibition) [8]: 16 µg/mL

Compound: CC(=O)O[C@H]1C[C@@]2(C)[C@@H](C[C@@H](O)[C@H]3[C@@]4(C)CC[C@@H](O)[C@@H](C)[C@@H]4CC[C@@]32C)/C1=C(\CCC=C(C)C)C(=O)O [Fusidic acid (1), Fusidic acid]
- retained initial activity [9]: about 70%
- MIC [1, 27]: 0.01 µg/mL (≈ 0.0194 µM)
- MIC [2, 27]: 0.012 µg/mL (≈ 0.0232 µM)
- MIC ([3]; Enterococcus faecium, read-out: MIC values (concentrations in μg/ml required for 90% inhibition)): 2.7 µg/mL (≈ 5.23 µM)
- MIC [4, 27]: 0.01 µg/mL (≈ 0.0194 µM)
- MIC ([5]; Enterococcus faecalis, read-out: MIC values (concentrations in μg/ml required for 90% inhibition)): 4.9 µg/mL (≈ 9.48 µM)
- MIC [6, 28]: 0.01 µg/mL (≈ 0.0194 µM)
- MIC [7, 27]: 0.013 µg/mL (≈ 0.0252 µM)
- MIC [8, 28]: 4.9 µg/mL (≈ 9.48 µM)
- MIC [10]: 0.125 µg/mL (≈ 0.242 µM)
- MIC [11]: 32 µg/mL (≈ 61.9 µM)
- MIC [12]: 1 µg/mL (≈ 1.94 µM)
- MIC [13]: 0.063 µg/mL (≈ 0.122 µM)
- MIC [14]: 16 µg/mL (≈ 31 µM)
- MIC [15]: 0.25 µg/mL (≈ 0.484 µM)
- MIC [16]: 2 µg/mL (≈ 3.87 µM)
- MIC [17]: 1 µg/mL (≈ 1.94 µM)
- MIC [18]: 1 µg/mL (≈ 1.94 µM)
- MIC [19]: 4 µg/mL (≈ 7.74 µM)
- MIC [20]: 64 µg/mL (≈ 124 µM)
- MIC [21]: 1 µg/mL (≈ 1.94 µM)
- MIC [22]: 16 µg/mL (≈ 31 µM)
- MIC [23]: 0.5 µg/mL (≈ 0.968 µM)
- MIC [24]: > 16 µg/mL
- MIC [25]: 8 µg/mL (≈ 15.5 µM)

Compound: tetrahydrofusidic acid
- antibacterial activity [26]: almost complete loss of activity
